{(KFF)3K-eg1} = H-(KFF)3K peptide (K lysine, F phenylalanine) with eg1 linker (8-amino-3,6-dioxaoctanoyl), on the PNA N terminus (5' end); {NH2} = C-terminal amide
Legend:
Assay type in all cases: cell-based, Acinetobacter baumannii
A. baumannii SSI1104 = assay: BPP-PNA MIC, broth microdilution
Experimental: (§1) MIC values were determined by broth microdilution according to standard protocols with a few modifications. […] Then, 180 µL bacterial solutions were dispensed into a low-bind 96-well plate (Thermo-Scientific, Roskilde, Denmark) along with 20 µL of BPP-PNA compound (BPP-PNA was serially diluted 2-fold from 16 to 0.5 µM in a 96-well plate). The plate was incubated in a Tecan Genios plate reader (GMI, Minnesota, Ramsey, USA) at 37 °C for 18 h with linear shaking, OD was measured every 20 min at 595 nm. […] The minimum bactericidal concentration (MBC) values were determined by plating 10 µL samples from the wells with no visible turbidity onto Mueller–Hinton agar plates. The MBC is determined the lowest concentration of BPP-PNA that reduces the viability of the initial bacterial inoculum by ≥99.9% (3-log reduction in CFU/mL). A minimum of two independent experiments (biological replicates) of the assay were conducted, and two technical replicates were used in each experiment for each bacterium, compound, and concentration.

CRAB strain AC46 = assay: BPP-PNA MIC, broth microdilution
Experimental: as §1

CRAB strains = assay: BPP-PNA MIC/MBC summarised over the panel of strains
Experimental: (§2) MIC values were determined by broth microdilution according to standard protocols with a few modifications. An overnight bacterial cell culture was diluted to approximately 5 × 10^5 CFU/mL in non-cation-adjusted Muller Hinton Broth (MHB). Then, 180 µL bacterial solutions were dispensed into a low-bind 96-well plate (Thermo-Scientific, Roskilde, Denmark) along with 20 µL of BPP-PNA compound (BPP-PNA was serially diluted 2-fold from 16 to 0.5 µM in a 96-well plate). The plate was incubated in a Tecan Genios plate reader (GMI, Minnesota, Ramsey, USA) at 37 °C for 18 h with linear shaking, OD was measured every 20 min at 595 nm. […] The minimum bactericidal concentration (MBC) values were determined by plating 10 µL samples from the wells with no visible turbidity onto Mueller–Hinton agar plates. The MBC is determined the lowest concentration of BPP-PNA that reduces the viability of the initial bacterial inoculum by ≥99.9% (3-log reduction in CFU/mL). A minimum of two independent experiments (biological replicates) of the assay were conducted, and two technical replicates were used in each experiment for each bacterium, compound, and concentration.

CRAB strain AC7 = assay: BPP-PNA MIC, broth microdilution; conditions: MHB without cation (Oxoid); 37 °C, 18 h
Experimental: as §2

CRAB strain AC6 = assay: BPP-PNA MIC, broth microdilution; conditions: MHB without cation (Oxoid); 37 °C, 18 h
Experimental: as §2

CRAB strain AC8 = assay: BPP-PNA MIC, broth microdilution; conditions: MHB without cation (Oxoid); 37 °C, 18 h
Experimental: as §2

CRAB strain AC9 = assay: BPP-PNA MIC, broth microdilution; conditions: MHB without cation (Oxoid); 37 °C, 18 h
Experimental: as §2

CRAB strain AC3 = assay: BPP-PNA MIC, broth microdilution; conditions: MHB without cation (Oxoid); 37 °C, 18 h
Experimental: as §2

CRAB strain AC44 = assay: BPP-PNA MIC, broth microdilution
Experimental: as §2

CRAB strain AC1 = assay: BPP-PNA MIC, broth microdilution; conditions: MHB without cation (Oxoid); 37 °C, 18 h
Experimental: as §2

CRAB strain AC5 = assay: BPP-PNA MIC, broth microdilution; conditions: MHB without cation (Oxoid); 37 °C, 18 h
Experimental: as §2

CRAB strain AC4 = assay: BPP-PNA MIC, broth microdilution; conditions: MHB without cation (Oxoid); 37 °C, 18 h
Experimental: as §2

A. baumannii ATCC 19606 = assay: BPP-PNA MIC, broth microdilution; conditions: 37 °C, 18 h
Experimental: as §2

CRAB strain AC2 = assay: BPP-PNA MIC, broth microdilution
Experimental: as §2

[1] = test system: antibiotic resistant clinical isolate AC46; assay: Minimum bactericidal concentration (MBC) assay; conditions: AC46, 24 h incubation, 1–8 μM
Experimental: as §2

[2] = MHB without cation (Oxoid), 37 °C, 18 h
[3] = Table 4 (anti-rne), brand of medium not given, non-cation-adjusted MHB by method

Substance: H-(KFF)3K-eg1-GAGTCCAGGAC-NH2 (all peptide nucleic acid (PNA), 5' {(KFF)3K-eg1}, 3' {NH2}) [PNA 5615, anti-ftsZ mismatch control of 5612]
- MIC, SSI 1104 (A. baumannii SSI1104; [2]): 16 µM
- MIC, AC46 (CRAB strain AC46; [2]): 16 µM
- MIC50 (CRAB strains; over the CRAB and ATCC 19606 strains of Table 3, MHB without cation (Oxoid)): 16 µM
- MIC, AC7 (CRAB strain AC7): 16 µM
- MIC, AC6 (CRAB strain AC6): 8 µM
- MIC, AC8 (CRAB strain AC8): 16 µM
- MIC, AC9 (CRAB strain AC9): 16 µM
- MIC, AC3 (CRAB strain AC3): 8 µM
- MIC, AC44 (CRAB strain AC44; [2]): 16 µM
- MIC, AC1 (CRAB strain AC1): 16 µM
- MIC, AC5 (CRAB strain AC5): 16 µM
- MIC, AC4 (CRAB strain AC4): 16 µM
- MIC, ATCC 19606 (A. baumannii ATCC 19606; MHB without cation (Oxoid)): 8 µM
- MIC, AC2 (CRAB strain AC2; [2]): 16 µM

Substance: H-(KFF)3K-eg1-TTTCATGGGTG-NH2 (antisense; N-terminal (KFF)3K-eg1 peptide, C-terminal amide, backbone not given here, further chemistry not given here) [PNA 5656, anti-rne peptide-PNA conjugate, match, −5 to +6]
- MIC, SSI 1104 (A. baumannii SSI1104; [3]): 2 µM
- MIC, AC46 (CRAB strain AC46; [3]): 2 µM
- CFU reduction in MBC assay compared to mismatch control [1]: very significant CFU reduction
- concentration with bactericidal activity against carbapenem-resistant A. baumannii (CRAB strains): 4 µM
- bactericidal concentration relative to MIC (CRAB strains; CRAB strains): 1–2 × MIC
- MIC (complete growth inhibition) over the CRAB strains tested (CRAB strains; several A. baumannii strains): 2 µM
- MIC of match PNA lower than mismatch control (mismatch discrimination) (CRAB strains; strains of Table 2 (5612 vs 5615) or Table 4 (5656 vs 5822)): four-fold
- MIC, AC44 (CRAB strain AC44; [3]): 2 µM
- MIC, ATCC 19606 (A. baumannii ATCC 19606; [3]): 2 µM
- MIC, AC2 (CRAB strain AC2; [3]): 2 µM

Reference: publication PMC8071358, “Targeting of the Essential acpP, ftsZ, and rne Genes in Carbapenem-Resistant Acinetobacter baumannii by Antisense PNA Precision Antibacterials” (Biomedicines, 2021)
